One assay deals with adult male ICR mice. Kind of assay: 55° C. warm water tail-flick test (antinociception). The format is in vivo, mouse. The note with it: for A50 i.c.v. / A50 i.v.: mouse 55° C. tail-flick, time of peak effect; for A50 i.c.v.: i.c.v. administration; for A50 i.v.: i.v. administration. As to the method:
All in vivo studies used adult male ICR mice (25-30 g; Harlan Industries, Cleveland, Ohio, USA) that were maintained on a 12 h light/dark cycle (lights on at 07:00 hours) in a temperature and humidity-controlled animal colony. All testing was carried out between 10:00 and 15:00 hours. Studies were carried out in accordance with the Guide for the Care and Use of Laboratory Animals as adopted and promulgated by the National Institutes of Health.
For intracerebroventricular (i.c.v.) injections, mice were lightly anesthetized with ether and an incision was made in the scalp. Injections were performed using a 10 μL Hamilton microsyringe (Hamilton Company, Reno, Nev., USA) at a point 2 mm caudal and 2 mm lateral from bregma. Compounds were injected at a depth of 3 mm in a volume of 5 μL. Intravenous (i.v.) injections were performed by restraining the mouse in a Plexiglas holder, dipping the tail for 10 seconds in 40° C. warm water to dilate the tail vein, and subsequent injection into the vein with a 30-gauge needle. All compounds were dissolved in distilled water (i.c.v. injections) or physiologic saline (i.v. injections).
Antinociception was assessed using the 55° C. warm water tail-flick test. The latency to the first sign of a rapid tail-flick was taken as the behavioral end-point. Each mouse was first tested for baseline latency by immersing its tail in the water and recording the time to response. Mice not responding within 5 seconds were excluded from further testing (average latency=2.1 seconds). Mice were then administered the test compound and tested for antinociception at 10, 20, 30, 45, 60, 90, 120 and 180 min postinjection. A maximum score was assigned (100%) to animals not responding within 10 seconds. Antinociception was calculated by the following formula: % antinociception=100·(test latency ) control latency)/(10 ) control latency). Dose-response lines were constructed at times of peak agonist effect, and analyzed by linear regression using […] software (17). All A50 values (95% confidence limits) shown were calculated from the linear portion of the dose-response curve. A minimum of three doses/curve and 8-10 mice were used at each dose level.
For orientation: In hot-plate and tail-flick tests a longer latency is read as antinociception.

The target of assay [1] is T1, human Δ-opioid receptor (DOR) (Homo sapiens, UniProt P41143).
T1 construct: expressed in transfected cells; host or cells: Chinese hamster ovary (CHO) cells
In words: biochemical. It is filed as binding.

The target in assay [2] is human δ-opioid receptor (human) (UniProt P41143). Kind of assay: radioligand competition against [3H]naltrindole, CHO cell membranes expressing human DOR.
The target is the same in assay [3]. Kind of assay: ratio of Ki values from radioligand competition, reference MOR.
Assay [4] deals with T2, human μ-opioid receptor (MOR) (Homo sapiens, UniProt P35372).
T2 construct: expressed in transfected cells; host or cells: Chinese hamster ovary (CHO) cells
In words: biochemical. It is filed as binding.

In assay [5] the target is T3, human κ-opioid receptor (human, UniProt P41145 1-380).
T3 construct: whole, on cells; Assayed as membranes of CHO cells expressing the receptor; also called KOR
Kind of assay: radioligand competition against [3H]U69,593, CHO cell membranes expressing human KOR. As to the method: (§1) Binding was determined in Chinese hamster ovary (CHO) cell membranes expressing either the human μ-, Δ-, or κ-opioid receptors (MOR, DOR, and KOR). Cells were incubated with 12 concentrations of glycopeptide and the indicated radiolabeled ligand (Table 1, below). Non-specific binding was measured by inclusion of 10 μM naloxone. Data are the mean Kᵢ values±SEM from three experiments performed in triplicate.
In general terms: Displacement assays read how much labelled ligand stays bound in the presence of the test substance.

In the next assay the target is T4, human µ-opioid receptor (human, UniProt P35372 1-400).
T4 construct: whole, on cells; Assayed as membranes of CHO cells expressing the receptor; also called MOR; mu opioid receptor
Kind of assay: radioligand competition against [3H]DAMGO, CHO cell membranes expressing human MOR. As to the method:
as §1

The target of assay [6] is T3, human κ-opioid receptor. Kind of assay: ratio of Ki values from radioligand competition, reference MOR. As to the method:
as §1

The record followed here is patent US20080019913A1 (UNIVERSITY OF ARIZONA OFFICE OF TECHNOLOGY TRANSFER, published 2008).

A word on the Ki: it is a dissociation constant, usually derived from enzyme kinetics or from competition with a known ligand.

Non-standard residues stand in square brackets, D forms with d. Residues, ends and D or L forms follow the SMILES beside them. No end group written: not given here. *: point of attachment. β‑lactoside = OC[C@H]1O[C@@H](O[C@H]2[C@H](O)[C@@H](O)[C@H](*)O[C@@H]2CO)[C@H](O)[C@@H](O)[C@H]1O; X2 = OC[C@H]1O[C@@H](O[C@H]2[C@H](O)[C@@H](O)[C@H](*)O[C@@H]2CO)[C@H](O)[C@@H](O)[C@H]1O; βGlc = OC[C@H]1O[C@@H](*)[C@H](O)[C@@H](O)[C@@H]1O; β‑D‑xyloside = O[C@@H]1[C@@H](O)[C@H](*)OC[C@H]1O; X1 = O[C@@H]1[C@@H](O)[C@H](*)OC[C@H]1O; NMeF = CN[C@@H](Cc1ccccc1)C(=O)O

As for `C[C@@H](NC(=O)[C@@H](N)Cc1ccc(O)cc1)C(=O)NCC(=O)N(C)[C@@H](Cc1ccccc1)C(=O)N[C@@H](CO)C(N)=O` [Compound 2] (HELM PEPTIDE1{Y.[dA].G.[meF].S.[am]}$$$$V2.0; N-terminus assumed), in the assay with adult male ICR mice, the A50 i.c.v. came out at 2.0 pmol per mouse and the A50 i.v. came to 0.20 µmol/kg. In addition, affinity in assay [1] was put at a Ki of 600 ± 44 nM.
For `C[C@@H](NC(=O)[C@@H](N)Cc1ccc(O)cc1)C(=O)NCC(=O)N(C)[C@@H](Cc1ccccc1)C(=O)NCCO` [DAMGO 1, [D-Ala^2,Me-Phe^4Gly^5(ol)]enkephalin, reference compound], in the assay on adult male ICR mice, the A50 i.c.v. was 30 pmol per mouse and the A50 i.v. was determined as 1.88 µmol/kg.
In assay [2], “DAMGO [D-Ala^2,Me-Phe^4Gly^5(ol)]enkephalin (peptide)” returned a Ki of 990 nM. Moreover, the Ratio µ:δ:κ (Ki at δ relative to µ) in assay [3] is 1900.
In turn, `CN1CC[C@]23c4c5ccc(O)c4O[C@H]2[C@@H](O)C=C[C@H]3[C@H]1C5` [Morphine, reference compound] returned an A50 i.v. in the assay with adult male ICR mice of 7.84 µmol/kg.
On to `C[C@@H](NC(=O)[C@@H](N)Cc1ccc(O)cc1)C(=O)NCC(=O)N(C)[C@@H](Cc1ccccc1)C(=O)N[C@@H](CO[C@@H]1OC[C@@H](O)[C@H](O)[C@H]1O)C(N)=O` [Compound 3] (H-Y[dA]G[NMeF]S(X1)-NH2; N-terminus assumed), for which, in the assay on adult male ICR mice, the A50 i.c.v. was 2.0 pmol per mouse and the A50 i.v. is 0.27 µmol/kg. In assay [4], this molecule showed a Ki of 1.3 ± 0.16 nM. The molecule also returned a Ki in assay [1] of 730 ± 66 nM.
With `C[C@@H](NC(=O)[C@@H](N)Cc1ccc(O)cc1)C(=O)NCC(=O)N(C)[C@@H](Cc1ccccc1)C(=O)N[C@@H](CO[C@@H]1O[C@H](CO)[C@@H](O[C@@H]2O[C@H](CO)[C@H](O)[C@H](O)[C@H]2O)[C@H](O)[C@H]1O)C(N)=O` [Compound 5] (H-Y[dA]G[NMeF]S(X2)-NH2; N-terminus assumed), in the assay on adult male ICR mice, the A50 i.c.v. stood at 2.0 pmol per mouse and the A50 i.v. turned out to be 1.15 µmol/kg. Besides, affinity in assay [1] was put at a Ki of 1600 ± 129 nM.
As to `C[C@@H](NC(=O)[C@@H](N)Cc1ccc(O)cc1)C(=O)NCC(=O)N(C)[C@@H](Cc1ccccc1)C(=O)N[C@@H](CO[C@@H]1O[C@H](CO)[C@@H](O)[C@H](O)[C@H]1O)C(N)=O` [Compound 4] (H-Y[dA]G[NMeF]S(βGlc)-NH2; N-terminus assumed), the duration of action in the assay with adult male ICR mice (after i.c.v. administration, tail-flick) is on record as above 180 min. The same molecule displayed an A50 i.c.v. in the assay with adult male ICR mice of 19 pmol per mouse. Further, the A50 i.v. with adult male ICR mice is 0.72 µmol/kg. The inhibitory constant (Ki) in assay [4] is 1.3 ± 0.09 nM; in assay [1], above 5000 nM.

B1: DAMGO analog compound (2), C-terminal L-serine amide (peptide)
peptide: YAGFS
HELM: PEPTIDE1{Y.[dA].G.[meF].S.[am]}$$$$V2.0; N-terminus assumed
SMILES: C[C@@H](NC(=O)[C@@H](N)Cc1ccc(O)cc1)C(=O)NCC(=O)N(C)[C@@H](Cc1ccccc1)C(=O)N[C@@H](CO)C(N)=O
notes: Made by Fmoc synthesis on Rink amide resin; also called peptide 2
As for B1, the inhibition constant (Ki) turned out to be 190 nM with human κ-opioid receptor [5] and 0.68 nM in the assay with human µ-opioid receptor. Besides, the “Ratio µ:δ:κ (Ki at κ relative to µ)” value in the assay with human κ-opioid receptor [6] came to 280. Besides, the Ratio µ:δ:κ (Ki at δ relative to µ) in assay [3] amounted to 880.

B2: DAMGO analog compound (4), C-terminal L-serine amide beta-D-glucoside (peptide)
peptide: Y[dA]G[NMeF]S(βGlc)-NH2
modifications: N-terminus assumed
SMILES: C[C@@H](NC(=O)[C@@H](N)Cc1ccc(O)cc1)C(=O)NCC(=O)N(C)[C@@H](Cc1ccccc1)C(=O)N[C@@H](CO[C@@H]1O[C@H](CO)[C@@H](O)[C@H](O)[C@H]1O)C(N)=O
notes: Glycopeptide; also called glycopeptide 4
B2 showed a Ki with human κ-opioid receptor [5] of 170 nM. Further, the “Ratio µ:δ:κ (Ki at κ relative to µ)” value with human κ-opioid receptor [6] came to 130. Moreover, in assay [3], the Ratio µ:δ:κ (Ki at δ relative to µ) came out at 3800.

B3: DAMGO analog compound (3), C-terminal L-serine amide beta-D-xyloside (peptide)
peptide: Y[dA]G[NMeF]S(β‑D‑xyloside)-NH2
modifications: N-terminus assumed
SMILES: C[C@@H](NC(=O)[C@@H](N)Cc1ccc(O)cc1)C(=O)NCC(=O)N(C)[C@@H](Cc1ccccc1)C(=O)N[C@@H](CO[C@@H]1OC[C@@H](O)[C@H](O)[C@H]1O)C(N)=O
notes: Glycopeptide; also called glycopeptide 3
Consider B3, for which the Ki in the assay with human κ-opioid receptor [5] was found to be 160 nM. Also, the “Ratio µ:δ:κ (Ki at κ relative to µ)” value with human κ-opioid receptor [6] was determined as 120. In addition, in assay [3], the Ratio µ:δ:κ (Ki at δ relative to µ) turned out to be 560.

B4: DAMGO analog compound (5), C-terminal L-serine amide beta-lactoside (peptide)
peptide: Y[dA]G[NMeF]S(β‑lactoside)-NH2
modifications: N-terminus assumed
SMILES: C[C@@H](NC(=O)[C@@H](N)Cc1ccc(O)cc1)C(=O)NCC(=O)N(C)[C@@H](Cc1ccccc1)C(=O)N[C@@H](CO[C@@H]1O[C@H](CO)[C@@H](O[C@@H]2O[C@H](CO)[C@H](O)[C@H](O)[C@H]2O)[C@H](O)[C@H]1O)C(N)=O
notes: Glycopeptide; also called glycopeptide 5
Take B4: the Ki with human κ-opioid receptor [5] was found to be 350 nM; with human µ-opioid receptor, 0.66 nM. The “Ratio µ:δ:κ (Ki at κ relative to µ)” value in the assay with human κ-opioid receptor [6] is 530. For the same molecule, the Ratio µ:δ:κ (Ki at δ relative to µ) in assay [3] stood at 2400.
